# Measurements from patent US12491170B2, “Stable treprostinil prodrugs” (United Therapeutics Corporation, priority 2020, dated 2025).
# Where two headings read alike, the source gives them in different places.
# Experiments:
# [1] = Stability in liver microsomes, human; conditions: for AUC: human
# [2] = Stability in cryopreserved hepatocytes, human; conditions: for AUC: human
# [3] = Stability in liver microsomes, dog
# [4] = dog
# [5] = Stability in human subcutaneous skin homogenate; conditions: for AUC: human
# [6] = rat
# [7] = Stability in liver microsomes, rat
# [8] = Stability in cryopreserved hepatocytes, dog; conditions: for AUC: dog
# [9] = Stability in cryopreserved hepatocytes, rat; conditions: for AUC: rat
compound,measurement,setting,value
CCCCCC(CCC1C(O)CC2Cc3c(cccc3OCC(=O)O)CC21)OCCC (stereo not shown) [XLVI],Trep Concentration 0 min,[1],0 µM
same,Trep Concentration 10 min,[1],0.0342 µM
same,Trep Concentration 20 min,[1],0.0556 µM
same,Trep Concentration 30 min,[1],0.0656 µM
same,Trep Concentration 60 min,[1],0.0835 µM
same,AUC,[1],3.46 µmol·min/L
same,Trep Concentration (μM) 0 min,[2],0 µM
same,Trep Concentration (μM) 15 min,[2],0.00507 µM
same,Trep Concentration (μM) 30 min,[2],0.00509 µM
same,Trep Concentration (μM) 60 min,[2],0.00568 µM
same,Trep Concentration (μM) 120 min,[2],0.0061 µM
same,AUC,[2],0.63 µmol·min/L
same,Trep Concentration 0 min,[3],0 µM
same,Trep Concentration 10 min,[3],0.0211 µM
same,Trep Concentration 20 min,[3],0.0334 µM
same,Trep Concentration 30 min,[3],0.0485 µM
same,Trep Concentration 60 min,[3],0.0841 µM
same,AUC,[4],2.78 µmol·min/L
same,Trep Concentration 0 min,[5],0 µM
same,Trep Concentration 30 min,[5],0 µM
same,Trep Concentration 60 min,[5],0 µM
same,Trep Concentration 120 min,[5],0 µM
same,AUC,[5],0.00 µmol·min/L
same,AUC,[6],4.67 µmol·min/L
same,Trep Concentration 0 min,[7],0 µM
same,Trep Concentration 10 min,[7],0.0425 µM
same,Trep Concentration 20 min,[7],0.0633 µM
same,Trep Concentration 30 min,[7],0.0882 µM
same,Trep Concentration 60 min,[7],0.123 µM
same,Trep Concentration (μM) 0 min,[8],0 µM
same,Trep Concentration (μM) 15 min,[8],0.00361 µM
same,Trep Concentration (μM) 30 min,[8],0.00376 µM
same,Trep Concentration (μM) 60 min,[8],0.00437 µM
same,Trep Concentration (μM) 120 min,[8],0.00465 µM
same,AUC,[8],0.47 µmol·min/L
same,Trep Concentration (μM) 0 min,[9],0 µM
same,Trep Concentration (μM) 15 min,[9],0.0144 µM
same,Trep Concentration (μM) 30 min,[9],0.0194 µM
same,Trep Concentration (μM) 60 min,[9],0.0209 µM
same,Trep Concentration (μM) 120 min,[9],0.0224 µM
same,AUC,[9],2.27 µmol·min/L
CCCCCC(CCC1C(O)CC2Cc3c(cccc3OCC(=O)O)CC21)OC (stereo not shown) [XLV],Trep Concentration 0 min,[1],0.00583 µM
same,Trep Concentration 10 min,[1],0.104 µM
same,Trep Concentration 20 min,[1],0.156 µM
same,Trep Concentration 30 min,[1],0.21 µM
same,Trep Concentration 60 min,[1],0.292 µM
same,AUC,[1],11.21 µmol·min/L
same,Trep Concentration (μM) 0 min,[2],0 µM
same,Trep Concentration (μM) 15 min,[2],0.0417 µM
same,Trep Concentration (μM) 30 min,[2],0.0533 µM
same,Trep Concentration (μM) 60 min,[2],0.0724 µM
same,Trep Concentration (μM) 120 min,[2],0.0734 µM
same,AUC,[2],7.29 µmol·min/L
same,Trep Concentration 0 min,[3],0 µM
same,Trep Concentration 10 min,[3],0 µM
same,Trep Concentration 20 min,[3],0.00323 µM
same,Trep Concentration 30 min,[3],0.00529 µM
same,Trep Concentration 60 min,[3],0.00637 µM
same,AUC,[4],0.23 µmol·min/L
same,Trep Concentration 0 min,[5],0 µM
same,Trep Concentration 30 min,[5],0 µM
same,Trep Concentration 60 min,[5],0 µM
same,Trep Concentration 120 min,[5],0 µM
same,AUC,[5],0.00 µmol·min/L
same,AUC,[6],0.83 µmol·min/L
same,Trep Concentration 0 min,[7],0 µM
same,Trep Concentration 10 min,[7],0.00607 µM
same,Trep Concentration 20 min,[7],0.00992 µM
same,Trep Concentration 30 min,[7],0.0162 µM
same,Trep Concentration 60 min,[7],0.023 µM
same,Trep Concentration (μM) 0 min,[8],0 µM
same,Trep Concentration (μM) 15 min,[8],0 µM
same,Trep Concentration (μM) 30 min,[8],0 µM
same,Trep Concentration (μM) 60 min,[8],0 µM
same,Trep Concentration (μM) 120 min,[8],0 µM
same,AUC,[8],0.00 µmol·min/L
same,Trep Concentration (μM) 0 min,[9],0 µM
same,Trep Concentration (μM) 15 min,[9],0.00378 µM
same,Trep Concentration (μM) 30 min,[9],0.00483 µM
same,Trep Concentration (μM) 60 min,[9],0.00537 µM
same,Trep Concentration (μM) 120 min,[9],0.00521 µM
same,AUC,[9],0.56 µmol·min/L
CCCCCC(CCC1C(O)CC2Cc3c(cccc3OCC(=O)O)CC21)OC(=O)CCC(=O)N1CCOCC1 (stereo not shown) [XXXIII],Trep Concentration 0 min,[1],0 µM
same,Trep Concentration 10 min,[1],0 µM
same,Trep Concentration 20 min,[1],0 µM
same,Trep Concentration 30 min,[1],0 µM
same,Trep Concentration 60 min,[1],0 µM
same,AUC,[1],0.00 µmol·min/L
same,Trep Concentration (μM) 0 min,[2],0 µM
same,Trep Concentration (μM) 15 min,[2],0.0192 µM
same,Trep Concentration (μM) 30 min,[2],0.0265 µM
same,Trep Concentration (μM) 60 min,[2],0.0464 µM
same,Trep Concentration (μM) 120 min,[2],0.0728 µM
same,AUC,[2],5.16 µmol·min/L
same,Trep Concentration 0 min,[3],0.0247 µM
same,Trep Concentration 10 min,[3],0.0494 µM
same,Trep Concentration 20 min,[3],0.0751 µM
same,Trep Concentration 30 min,[3],0.0888 µM
same,Trep Concentration 60 min,[3],0.13 µM
same,AUC,[4],5.10 µmol·min/L
same,Trep Concentration 0 min,[5],0 µM
same,Trep Concentration 30 min,[5],0 µM
same,Trep Concentration 60 min,[5],0 µM
same,Trep Concentration 120 min,[5],0 µM
same,AUC,[5],0.00 µmol·min/L
same,AUC,[6],1.90 µmol·min/L
same,Trep Concentration 0 min,[7],0.0107 µM
same,Trep Concentration 10 min,[7],0.0193 µM
same,Trep Concentration 20 min,[7],0.0291 µM
same,Trep Concentration 30 min,[7],0.0305 µM
same,Trep Concentration 60 min,[7],0.0498 µM
same,Trep Concentration (μM) 0 min,[8],0 µM
same,Trep Concentration (μM) 15 min,[8],0.0287 µM
same,Trep Concentration (μM) 30 min,[8],0.03796 µM
same,Trep Concentration (μM) 60 min,[8],0.0584 µM
same,Trep Concentration (μM) 120 min,[8],0.0754 µM
same,AUC,[8],6.18 µmol·min/L
same,Trep Concentration (μM) 0 min,[9],0 µM
same,Trep Concentration (μM) 15 min,[9],0.0753 µM
same,Trep Concentration (μM) 30 min,[9],0.132 µM
same,Trep Concentration (μM) 60 min,[9],0.18 µM
same,Trep Concentration (μM) 120 min,[9],0.238 µM
same,AUC,[9],19.34 µmol·min/L
CCCCCC(CCC1C(O)CC2Cc3c(cccc3OCC(=O)O)CC21)OC(=O)CCN (stereo not shown) [XXXVII],Trep Concentration 0 min,[1],0 µM
same,Trep Concentration 10 min,[1],0.0147 µM
same,Trep Concentration 20 min,[1],0 µM
same,Trep Concentration 30 min,[1],0.0153 µM
same,Trep Concentration 60 min,[1],0.00987 µM
same,AUC,[1],0.60 µmol·min/L
same,Trep Concentration (μM) 0 min,[2],0 µM
same,Trep Concentration (μM) 15 min,[2],0.0481 µM
same,Trep Concentration (μM) 30 min,[2],0.041 µM
same,Trep Concentration (μM) 60 min,[2],0.0715 µM
same,Trep Concentration (μM) 120 min,[2],0.115 µM
same,AUC,[2],8.31 µmol·min/L
same,Trep Concentration 0 min,[3],0.0163 µM
same,Trep Concentration 20 min,[3],0.0295 µM
same,Trep Concentration 30 min,[3],0.0273 µM
same,Trep Concentration 60 min,[3],0.0415 µM
same,AUC,[4],1.72 µmol·min/L
same,Trep Concentration 0 min,[5],0 µM
same,Trep Concentration 30 min,[5],0 µM
same,Trep Concentration 60 min,[5],0.0137 µM
same,Trep Concentration 120 min,[5],0.0304 µM
same,AUC,[5],1.53 µmol·min/L
same,AUC,[6],0.00 µmol·min/L
same,Trep Concentration 0 min,[7],0 µM
same,Trep Concentration 10 min,[7],0 µM
same,Trep Concentration 20 min,[7],0 µM
same,Trep Concentration 30 min,[7],0 µM
same,Trep Concentration 60 min,[7],0 µM
same,Trep Concentration (μM) 0 min,[8],0 µM
same,Trep Concentration (μM) 15 min,[8],0.0424 µM
same,Trep Concentration (μM) 30 min,[8],0.0879 µM
same,Trep Concentration (μM) 60 min,[8],0.147 µM
same,Trep Concentration (μM) 120 min,[8],0.248 µM
same,AUC,[8],16.67 µmol·min/L
same,Trep Concentration (μM) 0 min,[9],0 µM
same,Trep Concentration (μM) 15 min,[9],0.0136 µM
same,Trep Concentration (μM) 30 min,[9],0.0199 µM
same,Trep Concentration (μM) 60 min,[9],0.106 µM
same,Trep Concentration (μM) 120 min,[9],0.0527 µM
same,AUC,[9],7.00 µmol·min/L
